Here are results for two compounds from ChEMBL document CHEMBL4800727 (2021).

One may read the inhibition as the drop in the measured response relative to a control, in per cent.

Conditions in all cases: Compound concentration 10.0 uM
Experiment [1] deals with Kappa-type opioid receptor (Homo sapiens) (UniProt P41145).
Experiment [2] addresses Sodium-dependent dopamine transporter (Homo sapiens, UniProt Q01959).
Experiment [3] deals with Sigma non-opioid intracellular receptor 1 (Homo sapiens) (UniProt Q99720).
Sequence of Sigma non-opioid intracellular receptor 1 (Homo sapiens) (Q99720 whole entry): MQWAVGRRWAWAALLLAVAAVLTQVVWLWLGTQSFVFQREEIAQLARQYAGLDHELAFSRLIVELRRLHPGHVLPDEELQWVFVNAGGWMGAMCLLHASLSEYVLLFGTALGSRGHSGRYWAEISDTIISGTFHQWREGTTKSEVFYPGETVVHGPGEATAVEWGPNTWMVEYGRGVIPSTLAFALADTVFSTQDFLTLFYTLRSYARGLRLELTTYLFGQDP
Experiment [4] has as its target T1, Muscarinic acetylcholine receptor M2 (Homo sapiens) (UniProt P08172).
T1 sequence (whole entry): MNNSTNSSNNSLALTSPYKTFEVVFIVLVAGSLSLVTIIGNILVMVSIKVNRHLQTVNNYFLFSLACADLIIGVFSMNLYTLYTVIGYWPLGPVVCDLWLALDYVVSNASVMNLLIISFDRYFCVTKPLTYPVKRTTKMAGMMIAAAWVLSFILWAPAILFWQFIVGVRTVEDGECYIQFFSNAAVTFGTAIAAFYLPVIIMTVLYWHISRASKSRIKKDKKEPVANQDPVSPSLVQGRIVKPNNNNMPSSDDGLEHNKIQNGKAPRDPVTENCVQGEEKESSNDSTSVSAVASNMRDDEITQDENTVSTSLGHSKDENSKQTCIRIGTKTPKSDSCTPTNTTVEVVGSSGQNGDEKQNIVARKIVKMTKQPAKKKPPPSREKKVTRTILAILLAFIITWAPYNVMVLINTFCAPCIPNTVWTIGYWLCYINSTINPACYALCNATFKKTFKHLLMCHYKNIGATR

The target of experiment [5] is Beta-1 adrenergic receptor (Homo sapiens) (UniProt P08588).
Sequence of Beta-1 adrenergic receptor (Homo sapiens) (P08588 whole entry, looked up): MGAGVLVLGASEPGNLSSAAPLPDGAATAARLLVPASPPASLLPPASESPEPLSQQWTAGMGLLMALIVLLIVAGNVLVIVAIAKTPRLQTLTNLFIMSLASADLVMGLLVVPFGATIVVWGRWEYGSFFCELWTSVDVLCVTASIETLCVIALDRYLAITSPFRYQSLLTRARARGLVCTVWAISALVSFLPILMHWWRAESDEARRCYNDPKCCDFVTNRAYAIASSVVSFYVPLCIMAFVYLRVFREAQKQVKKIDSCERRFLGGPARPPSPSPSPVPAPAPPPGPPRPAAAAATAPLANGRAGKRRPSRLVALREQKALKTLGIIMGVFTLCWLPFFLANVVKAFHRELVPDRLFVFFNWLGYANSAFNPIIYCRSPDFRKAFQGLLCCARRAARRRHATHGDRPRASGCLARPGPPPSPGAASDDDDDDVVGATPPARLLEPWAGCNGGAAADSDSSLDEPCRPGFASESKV
Experiment [6] has as its target 5-hydroxytryptamine receptor 2A (Homo sapiens) (UniProt P28223).
For experiment [7], the target named is T2, Alpha-1B adrenergic receptor (Homo sapiens) (UniProt P35368).
T2 sequence (whole entry): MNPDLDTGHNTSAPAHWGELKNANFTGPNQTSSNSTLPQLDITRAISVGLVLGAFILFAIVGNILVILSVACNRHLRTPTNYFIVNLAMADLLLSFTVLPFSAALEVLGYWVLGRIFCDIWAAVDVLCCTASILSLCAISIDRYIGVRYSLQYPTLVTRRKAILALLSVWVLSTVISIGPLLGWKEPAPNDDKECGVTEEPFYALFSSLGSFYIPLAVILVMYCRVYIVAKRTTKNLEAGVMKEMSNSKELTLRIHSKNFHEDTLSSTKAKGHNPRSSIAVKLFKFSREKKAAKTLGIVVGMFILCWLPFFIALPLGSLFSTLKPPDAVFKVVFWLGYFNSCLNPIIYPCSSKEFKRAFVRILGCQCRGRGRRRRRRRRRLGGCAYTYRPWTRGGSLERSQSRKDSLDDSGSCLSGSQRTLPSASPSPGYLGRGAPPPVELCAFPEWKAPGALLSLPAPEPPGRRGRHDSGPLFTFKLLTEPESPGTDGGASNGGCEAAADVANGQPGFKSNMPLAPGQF

Experiment [8] has as its target Histamine H3 receptor (Homo sapiens) (UniProt Q9Y5N1).
Experiment [9] addresses Alpha-2C adrenergic receptor (Homo sapiens) (UniProt P18825).
In experiment [10] the target is Sodium-dependent serotonin transporter (Homo sapiens) (UniProt P31645).
Sequence of Sodium-dependent serotonin transporter (Homo sapiens) (P31645 whole entry, looked up): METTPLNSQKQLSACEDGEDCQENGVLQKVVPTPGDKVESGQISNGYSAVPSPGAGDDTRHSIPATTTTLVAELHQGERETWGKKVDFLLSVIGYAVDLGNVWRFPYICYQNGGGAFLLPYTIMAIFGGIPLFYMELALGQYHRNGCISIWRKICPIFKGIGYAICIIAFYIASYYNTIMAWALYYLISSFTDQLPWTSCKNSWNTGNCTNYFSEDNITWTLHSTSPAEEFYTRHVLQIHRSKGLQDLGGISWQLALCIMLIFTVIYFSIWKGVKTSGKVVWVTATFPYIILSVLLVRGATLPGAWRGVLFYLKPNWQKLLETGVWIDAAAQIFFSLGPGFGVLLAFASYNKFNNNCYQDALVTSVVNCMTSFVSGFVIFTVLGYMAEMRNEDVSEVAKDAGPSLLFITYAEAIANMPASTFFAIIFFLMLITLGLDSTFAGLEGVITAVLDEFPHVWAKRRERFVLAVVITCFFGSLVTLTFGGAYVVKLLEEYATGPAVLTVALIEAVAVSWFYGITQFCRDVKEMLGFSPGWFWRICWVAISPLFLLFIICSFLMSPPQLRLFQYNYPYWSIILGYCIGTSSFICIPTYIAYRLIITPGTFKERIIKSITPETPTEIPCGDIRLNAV
Experiment [11] deals with 5-hydroxytryptamine receptor 6 (Homo sapiens) (UniProt P50406).
For experiment [12], the target named is Alpha-1D adrenergic receptor (Homo sapiens) (UniProt P25100).
Sequence of Alpha-1D adrenergic receptor (Homo sapiens) (P25100 whole entry): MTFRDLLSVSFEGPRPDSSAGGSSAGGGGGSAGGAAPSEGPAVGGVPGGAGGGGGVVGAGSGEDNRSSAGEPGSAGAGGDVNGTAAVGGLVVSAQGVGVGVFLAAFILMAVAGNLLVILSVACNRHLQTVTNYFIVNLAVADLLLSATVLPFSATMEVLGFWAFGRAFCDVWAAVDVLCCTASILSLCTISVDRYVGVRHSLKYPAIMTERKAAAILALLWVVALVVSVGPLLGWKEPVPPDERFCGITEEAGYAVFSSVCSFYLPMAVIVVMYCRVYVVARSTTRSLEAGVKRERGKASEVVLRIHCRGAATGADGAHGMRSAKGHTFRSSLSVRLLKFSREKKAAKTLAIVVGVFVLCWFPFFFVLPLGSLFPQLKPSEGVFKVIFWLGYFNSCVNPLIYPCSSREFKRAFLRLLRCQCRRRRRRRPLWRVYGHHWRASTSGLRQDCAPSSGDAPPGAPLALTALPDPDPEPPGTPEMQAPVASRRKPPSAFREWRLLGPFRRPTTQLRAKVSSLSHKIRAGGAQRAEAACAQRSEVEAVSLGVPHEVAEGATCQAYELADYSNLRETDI
For experiment [13], the target named is Delta-type opioid receptor (Homo sapiens) (UniProt P41143).
Sequence of Delta-type opioid receptor (Homo sapiens) (P41143 whole entry): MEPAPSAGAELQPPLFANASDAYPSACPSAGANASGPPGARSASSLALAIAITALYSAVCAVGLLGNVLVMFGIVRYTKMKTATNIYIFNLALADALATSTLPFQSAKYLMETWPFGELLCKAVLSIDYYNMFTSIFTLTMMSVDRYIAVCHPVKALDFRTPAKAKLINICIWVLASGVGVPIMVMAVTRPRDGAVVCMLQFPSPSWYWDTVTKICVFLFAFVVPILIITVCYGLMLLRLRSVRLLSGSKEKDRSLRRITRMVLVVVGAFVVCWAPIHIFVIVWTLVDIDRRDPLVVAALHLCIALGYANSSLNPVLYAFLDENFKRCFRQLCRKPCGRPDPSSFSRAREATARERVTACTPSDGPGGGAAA
For experiment [14], the target named is D(3) dopamine receptor (Homo sapiens) (UniProt P35462).
Sequence of D(3) dopamine receptor (Homo sapiens) (P35462 whole entry): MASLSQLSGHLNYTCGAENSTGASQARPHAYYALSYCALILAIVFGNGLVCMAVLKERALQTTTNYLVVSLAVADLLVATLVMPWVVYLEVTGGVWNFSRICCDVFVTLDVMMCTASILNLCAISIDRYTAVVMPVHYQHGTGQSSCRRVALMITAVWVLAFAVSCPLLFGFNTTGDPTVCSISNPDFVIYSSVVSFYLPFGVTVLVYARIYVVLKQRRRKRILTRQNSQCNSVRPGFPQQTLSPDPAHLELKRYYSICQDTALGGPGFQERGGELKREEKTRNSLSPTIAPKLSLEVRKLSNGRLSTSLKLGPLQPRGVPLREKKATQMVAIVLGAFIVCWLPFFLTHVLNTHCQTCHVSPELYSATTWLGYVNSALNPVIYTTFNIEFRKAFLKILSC
The target in experiment [15] is 5-hydroxytryptamine receptor 1D (Homo sapiens) (UniProt P28221).
Sequence of 5-hydroxytryptamine receptor 1D (Homo sapiens) (P28221 whole entry): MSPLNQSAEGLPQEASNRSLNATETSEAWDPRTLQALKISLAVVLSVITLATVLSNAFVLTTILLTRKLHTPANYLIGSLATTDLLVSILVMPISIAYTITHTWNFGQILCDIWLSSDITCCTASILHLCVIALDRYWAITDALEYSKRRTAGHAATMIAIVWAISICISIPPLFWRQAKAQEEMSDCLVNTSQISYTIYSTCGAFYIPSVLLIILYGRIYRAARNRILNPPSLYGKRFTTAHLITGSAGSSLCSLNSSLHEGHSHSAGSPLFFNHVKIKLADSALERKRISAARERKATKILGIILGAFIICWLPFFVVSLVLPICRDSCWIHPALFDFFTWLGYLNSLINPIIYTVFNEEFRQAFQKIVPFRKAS
The target in experiment [16] is T3, Muscarinic acetylcholine receptor M4 (Homo sapiens) (UniProt P08173).
T3 sequence (whole entry): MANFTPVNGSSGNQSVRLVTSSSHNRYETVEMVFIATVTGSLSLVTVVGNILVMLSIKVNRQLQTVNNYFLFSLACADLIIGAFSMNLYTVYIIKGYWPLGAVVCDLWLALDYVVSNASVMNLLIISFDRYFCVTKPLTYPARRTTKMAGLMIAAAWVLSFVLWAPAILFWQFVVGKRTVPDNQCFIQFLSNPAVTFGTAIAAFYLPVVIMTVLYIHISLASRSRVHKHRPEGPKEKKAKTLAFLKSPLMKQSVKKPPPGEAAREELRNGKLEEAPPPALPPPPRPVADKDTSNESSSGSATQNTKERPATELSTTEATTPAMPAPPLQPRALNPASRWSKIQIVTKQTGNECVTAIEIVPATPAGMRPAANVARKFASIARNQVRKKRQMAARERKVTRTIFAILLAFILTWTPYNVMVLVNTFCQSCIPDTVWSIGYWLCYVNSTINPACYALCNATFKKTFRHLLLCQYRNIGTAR

Experiment [17] deals with T4, Alpha-2B adrenergic receptor (Homo sapiens) (UniProt P18089).
T4 sequence (whole entry): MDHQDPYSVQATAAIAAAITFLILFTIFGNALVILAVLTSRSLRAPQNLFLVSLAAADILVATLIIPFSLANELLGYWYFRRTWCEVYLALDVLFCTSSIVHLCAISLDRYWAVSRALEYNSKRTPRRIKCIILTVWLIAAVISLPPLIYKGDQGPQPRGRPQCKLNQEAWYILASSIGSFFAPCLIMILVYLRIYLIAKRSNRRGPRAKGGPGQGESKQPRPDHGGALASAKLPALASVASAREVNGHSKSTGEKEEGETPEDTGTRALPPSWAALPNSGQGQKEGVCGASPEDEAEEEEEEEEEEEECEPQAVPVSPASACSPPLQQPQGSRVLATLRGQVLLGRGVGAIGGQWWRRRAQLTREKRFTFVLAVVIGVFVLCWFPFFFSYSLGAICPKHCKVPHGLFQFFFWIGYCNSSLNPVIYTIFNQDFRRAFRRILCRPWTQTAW

The target in experiment [18] is 5-hydroxytryptamine receptor 5A (Homo sapiens) (UniProt P47898).
Sequence of 5-hydroxytryptamine receptor 5A (Homo sapiens) (P47898 whole entry): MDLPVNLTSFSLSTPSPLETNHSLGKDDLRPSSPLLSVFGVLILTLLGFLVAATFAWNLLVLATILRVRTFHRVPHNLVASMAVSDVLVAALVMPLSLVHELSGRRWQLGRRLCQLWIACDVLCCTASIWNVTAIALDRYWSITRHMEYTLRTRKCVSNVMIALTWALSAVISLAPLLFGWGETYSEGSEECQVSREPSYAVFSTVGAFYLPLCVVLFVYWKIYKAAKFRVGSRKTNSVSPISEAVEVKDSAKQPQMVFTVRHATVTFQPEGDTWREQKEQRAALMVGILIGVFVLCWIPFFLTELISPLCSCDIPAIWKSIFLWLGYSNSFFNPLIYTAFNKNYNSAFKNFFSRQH
In experiment [19] the target is D(1A) dopamine receptor (Homo sapiens) (UniProt P21728).
Sequence of D(1A) dopamine receptor (Homo sapiens) (P21728 whole entry): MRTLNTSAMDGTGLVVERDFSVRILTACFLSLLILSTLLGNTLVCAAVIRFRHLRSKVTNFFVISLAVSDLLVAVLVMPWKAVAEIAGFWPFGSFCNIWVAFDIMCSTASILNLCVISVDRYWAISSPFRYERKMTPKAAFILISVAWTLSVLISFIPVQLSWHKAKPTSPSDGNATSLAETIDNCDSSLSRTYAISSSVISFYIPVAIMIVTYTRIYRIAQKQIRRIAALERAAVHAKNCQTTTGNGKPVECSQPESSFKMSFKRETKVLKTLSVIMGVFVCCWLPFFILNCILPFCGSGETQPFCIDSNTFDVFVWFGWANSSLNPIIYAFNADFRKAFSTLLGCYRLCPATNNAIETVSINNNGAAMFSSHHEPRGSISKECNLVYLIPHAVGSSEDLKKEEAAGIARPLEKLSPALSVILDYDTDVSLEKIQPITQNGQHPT
The target of experiment [20] is Sigma intracellular receptor 2 (Homo sapiens) (UniProt Q5BJF2).
Sequence of Sigma intracellular receptor 2 (Homo sapiens) (Q5BJF2 whole entry): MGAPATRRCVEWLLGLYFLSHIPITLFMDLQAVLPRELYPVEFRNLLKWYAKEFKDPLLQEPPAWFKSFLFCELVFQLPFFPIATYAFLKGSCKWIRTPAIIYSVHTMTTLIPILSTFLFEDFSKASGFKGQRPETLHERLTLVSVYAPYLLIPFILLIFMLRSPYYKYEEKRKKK

Sequence of Alpha-2C adrenergic receptor (Homo sapiens) (P18825 whole entry): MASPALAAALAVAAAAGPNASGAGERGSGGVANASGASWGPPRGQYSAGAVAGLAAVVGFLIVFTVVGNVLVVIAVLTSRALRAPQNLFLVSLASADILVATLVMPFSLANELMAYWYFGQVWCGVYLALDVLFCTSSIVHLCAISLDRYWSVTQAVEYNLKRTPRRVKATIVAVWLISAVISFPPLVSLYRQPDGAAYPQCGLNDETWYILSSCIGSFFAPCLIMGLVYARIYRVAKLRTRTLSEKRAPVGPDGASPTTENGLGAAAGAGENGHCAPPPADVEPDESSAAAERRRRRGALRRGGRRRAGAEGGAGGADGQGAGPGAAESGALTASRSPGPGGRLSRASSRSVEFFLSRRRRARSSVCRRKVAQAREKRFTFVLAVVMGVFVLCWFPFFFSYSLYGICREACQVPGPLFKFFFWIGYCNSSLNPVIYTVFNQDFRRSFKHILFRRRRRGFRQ
Sequence of Kappa-type opioid receptor (Homo sapiens) (P41145 whole entry): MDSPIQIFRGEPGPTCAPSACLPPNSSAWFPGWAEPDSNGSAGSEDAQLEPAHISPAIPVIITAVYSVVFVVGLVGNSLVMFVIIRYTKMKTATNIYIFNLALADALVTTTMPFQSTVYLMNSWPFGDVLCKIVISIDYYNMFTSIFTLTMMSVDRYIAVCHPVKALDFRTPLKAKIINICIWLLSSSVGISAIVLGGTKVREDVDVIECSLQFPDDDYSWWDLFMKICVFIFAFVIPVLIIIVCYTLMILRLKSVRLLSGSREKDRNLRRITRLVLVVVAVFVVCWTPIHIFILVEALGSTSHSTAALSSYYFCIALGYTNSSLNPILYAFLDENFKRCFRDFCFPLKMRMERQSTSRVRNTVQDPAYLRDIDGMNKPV

In the case of `c1ccc(C2CCN(c3cnc4c(N5CCOCC5)nccn34)CC2)cc1`, the inhibition in experiment [1] is 6.44%; in [2], 85.9%; in experiment [3] it was 44%; in experiment [4], 9.44%; in [5] it was 23.5%; in [6], 13.1%. Further, the inhibition in experiment [7] is 0.45%; in [8] it was 7.29%; in [9] it was 16.5%; in experiment [10], 3.12%; in experiment [11], -7.87%; in experiment [12], 10.7%. For the same compound, the inhibition was 2.73% in experiment [13]; -6.13% in [14]; 1.09% in experiment [15]; -5.45% in [16]; 31.4% in experiment [17]; 19% in experiment [18]. The inhibition in experiment [19] is 10.6%; in experiment [20], 31.6%.

`COCCc1ccc(-c2c(C)nc3c(N4CCOCC4)ccnn23)cn1` [JNJ-42396302]: the inhibition in experiment [1] is 14.5%; in [2], 9.55%; in experiment [3], -2.53%; in experiment [4], 10.4%; in experiment [5] it was 3.43%; in experiment [6], 45.9%. Moreover, the inhibition was -8.94% in [7]; 3.7% in experiment [8]; 41.3% in experiment [9]; 0.57% in experiment [10]; 18.5% in experiment [11]; 15.3% in experiment [12]. Further, the inhibition in experiment [13] was 7.84%; in experiment [14], 24.1%; in experiment [15], 11.5%; in experiment [16], 5.21%; in [17], 78.2%; in experiment [18] it was 3.93%. Further, the results for the inhibition in experiment [19] and in experiment [20] were 2.41% and 3.07%, respectively.
